Experimental findings from patent US10077241B2 (Janssen Pharmaceutica NV, priority 2014, dated 2018) are described below.

The target of test [1] is T1, TGR5 (NCI-H716 cell line) (Homo sapiens, UniProt Q8TDU6).
T1 sequence (Q8TDU6 1-330): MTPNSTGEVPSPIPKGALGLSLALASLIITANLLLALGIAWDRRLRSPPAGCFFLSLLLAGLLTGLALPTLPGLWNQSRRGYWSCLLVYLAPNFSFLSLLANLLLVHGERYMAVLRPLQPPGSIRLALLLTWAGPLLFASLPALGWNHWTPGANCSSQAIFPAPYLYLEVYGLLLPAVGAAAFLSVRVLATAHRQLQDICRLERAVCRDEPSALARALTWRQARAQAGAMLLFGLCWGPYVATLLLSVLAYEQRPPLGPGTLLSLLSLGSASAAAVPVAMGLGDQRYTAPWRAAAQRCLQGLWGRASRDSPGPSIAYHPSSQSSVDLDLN
Description: NCI-H716 cAMP Agonist EC50 Determination.
Description: Cells were cultured in suspension using RPM containing: 10% HI FBS, and 1× Penn/Strep and were cryostored (1E7 cells/vial in 5% DMSO).
A Normalized signal (NS) is generated by the Envision for each well ((Read 1/Read 2)×10,000).
The data from the Envision were imported to an Excel worksheet. nM cAMP is calculated for each well from the cAMP standard curves located on each plate by first calculating the slope and deriving the intercept (b).
[formula] [formula] [formula] EC50 values were determined from a 4-point fit (Hill equation) of a single 11-point compound dosing.

For test [2], the target named is T2, TGR5 (STC1 cell line) (Mus musculus, UniProt Q80SS6).
T2 sequence (Q80SS6 1-329): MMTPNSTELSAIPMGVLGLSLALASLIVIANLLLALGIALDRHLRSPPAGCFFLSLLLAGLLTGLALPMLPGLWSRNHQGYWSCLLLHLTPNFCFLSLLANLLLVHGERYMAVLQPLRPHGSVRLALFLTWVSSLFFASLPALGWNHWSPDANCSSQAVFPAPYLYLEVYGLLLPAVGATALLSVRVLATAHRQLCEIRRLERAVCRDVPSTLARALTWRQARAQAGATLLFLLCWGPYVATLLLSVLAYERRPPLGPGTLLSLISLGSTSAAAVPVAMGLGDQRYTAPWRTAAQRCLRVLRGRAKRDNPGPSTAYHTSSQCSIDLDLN
Nature of the test: STC1 cAMP Agonist EC50 Determination.
Description: Cell stocks were maintained and grown in a sub-confluent state using standard cell culture procedures. The day before the experiment, the cells were harvested with non-enzymatic cell dissociation buffer and resuspended in complete growth media at 4E5 c/ml. […] The seeded plates were incubated overnight at 37° C.
On the day of the experiment, Assay Buffer containing: HBSS with Ca^2+and Mg^2+; 5 μM HEPES; 0.1% BSA; and, 0.5 μM IBMX was prepared. The growth medium was washed from the cell plates and replaced with 20 μL of Assay Buffer. […] The reaction was stopped by the addition of 20 μL 0.1% Formic Acid to all wells. Sixty minutes later 30 μL 3 M deuterated AMP was added to all wells (as a control for volume addition to the mass spec). Plates were mixed on a plate shaker for 1 min and centrifugated (5 min 3000 RPMs no brakes).
Plates were run on a 4000 QTrap triple-quadrapole Mass spectrometer in positive ion mode coupled with a Biocius RapidFire 300is. […] Two ions (cAMP and deuterated AMP were measured using Multiple Reaction Monitoring (MRM) in positive ion mode and the area under the curve (AUC) was determined for each of the ions.
The data from the Mass Spec/Rapid Plate AUC for cAMP and deuterated AMP were imported to an Excel worksheet. A Normalized signal (NS) was generated for each well=(cAMP AUC for the well/deut AMP AUC for the well)*average deut AMP AUC for the plate). nM cAMP was calculated for each well from the cAMP standard curves located on each plate by first calculating the slope and deriving the intercept (b).
EC50 values were determined from a 4-point fit (Hill equation) of a single 11-point compound dosing.

Structures can show the parent of a compound that is named as a salt.

Take `COc1cc(C2CCCc3nc(SCc4c(F)cc(CC5SC(=O)NC5=O)cc4F)n(-c4ccc(F)cc4)c32)ccc1Cl` (stereo not drawn) [Example 38, 5-(4-((7-(4-chloro-3-methoxyphenyl)-1-(4-fluorophenyl)-4,5,6,7-tetrahydro-1H-benzo[d]imidazol-2-ylthio)methyl)-3,5-difluorobenzyl)thiazolidine-2,4-dione trifluoroacetic acid]: the EC50 – broadly, the midpoint of the concentration-response curve – was > 50 µM in test [1] and 1.25 µM in test [2].

Consider `Cc1nc2ccc(C3OCCc4nc(SCc5c(F)cccc5Cl)n(-c5ccc(F)cc5)c43)cc2o1` (stereo not drawn) [Example 135, 2-((2-chloro-6-fluorobenzyl)thio)-3-(4-fluorophenyl)-4-(2-methylbenzo[d]oxazol-6-yl)-3,4,6,7-tetrahydropyrano[3,4-d]imidazole], for which the EC50 in test [1] came out at 11 µM; in test [2], 3.84 µM.

With `COc1cc(C2CCCc3nc(SCc4c(F)ccc(F)c4Cl)n(-c4ccc(F)cc4)c32)ccc1Cl` (stereo not drawn) [Example 20, 2-[[(2-chloro-3,6-difluorophenyl)methyl]sulfanyl]-7-(4-chloro-3-methoxyphenyl)-1-(4-fluorophenyl)-4,5,6,7-tetrahydro-1H-1,3-benzodiazole], the results for the EC50 in test [1] and in test [2] were > 50 µM and 0.51 µM, respectively.

Consider `COc1cc(C2CCCc3nc(SCc4c(F)cccc4Cl)n(-c4cc(F)c(F)cc4F)c32)ccc1Cl` (stereo not drawn) [Example 11, 7-(4-chloro-3-methoxyphenyl)-2-((2-chloro-6-fluorobenzyl)thio)-1-(2,4,5-trifluorophenyl)-4,5,6,7-tetrahydro-1H-benzo[d]imidazole], for which the EC50 in test [1] was > 50 µM; in test [2], 3.71 µM.

As to `C/N=C(\N)NCCCc1cc(F)c(CSc2nc3c(n2-c2ccc(F)cc2)C(c2ccc(Cl)c(OC)c2)CCC3)c(F)c1` (stereo not drawn) [Example 39a, (E)-1-[3-[4-([[7-(4-chloro-3-methoxyphenyl)-1-(4-fluorophenyl)-4,5,6,7-tetrahydro-1H-1,3-benzodiazol-2-yl]sulfanyl]methyl)-3,5-difluorophenyl]propyl]-2-methylguanidine hydrochloride], the EC50 in test [1] was > 50 µM; in test [2] it was 0.36 µM.

In the case of `COc1cc(C2(C)CCCc3nc(SCc4c(F)cc(C(=O)N(C)C)cc4F)n(-c4ccc(F)cc4)c32)ccc1Cl` (stereo not drawn) [Example 92, 4-([[7-(4-chloro-3-methoxyphenyl)-1-(4-fluorophenyl)-7-methyl-4,5,6,7-tetrahydro-1H-1,3-benzodiazol-2-yl]sulfanyl]methyl)-3,5-difluoro-N,N-dimethylbenzamide], the EC50 amounted to 18.1 µM in test [1] and 0.12 µM in test [2].

Take `COc1cc(C2CCCc3nc(SCc4c(F)cc(OCCOCCN(C)C)cc4F)n(-c4ccc(F)cc4)c32)ccc1Cl` (stereo not drawn) [Example 34, (2-[2-[4-([[7-(4-chloro-3-methoxyphenyl)-1-(4-fluorophenyl)-4,5,6,7-tetrahydro-1H-1,3-benzodiazol-2-yl]sulfanyl]methyl)-3,5-difluorophenoxy]ethoxy]ethyl)dimethylamine hydrochloride]: the EC50 is > 50 µM in test [1] and 3.9 µM in test [2].

In the case of `COc1cc(C2CCCc3nc(SCc4sccc4Cl)n(-c4ccc(F)cc4)c32)ccc1Cl` (stereo not drawn) [Example 58, 2-((3-chlorothiophen-2-yl)methylthio)-7-(4-chloro-3-methoxyphenyl)-1-(4-fluorophenyl)-4,5,6,7-tetrahydro-1H-benzo[d]imidazole trifluoroacetic acid], the figures for the EC50 in test [1] and in test [2] were > 50 µM and 1.1 µM, respectively.

`COc1cc(C2CCCc3nc(SCc4c(F)cc(/C=C5\SC(=O)NC5=O)cc4F)n(-c4ccc(F)cc4)c32)ccc1Cl` (stereo not drawn) [Example 37, (5Z)-5-[[4-([[7-(4-chloro-3-methoxyphenyl)-1-(4-fluorophenyl)-4,5,6,7-tetrahydro-1H-1,3-benzodiazol-2-yl]sulfanyl]methyl)-3,5-difluorophenyl]methylidene]-1,3-thiazolidine-2,4-dione]: the EC50 in test [1] was > 50 µM; in test [2] it was 14.9 µM.

In the case of `COc1cc(C2(C)CCCc3nc(SCc4c(F)cc(OCCN(C)C)cc4F)n(-c4ccc(F)cc4)c32)ccc1Cl` (stereo not drawn) [Example 80, 2-(4-((7-(4-chloro-3-methoxyphenyl)-1-(4-fluorophenyl)-4,5,6,7-tetrahydro-7-methyl-1H-benzo[d]imidazol-2-ylthio)methyl)-3,5-difluorophenoxy)-N,N-dimethylethanamine], the EC50 in test [1] came to 19.2 µM; in test [2], 2.94 µM.

Consider `COc1cc(C2(C)CCCc3nc(SCc4c(F)cc(C(=O)N[C@@H](CCCNC(=N)N)C(=O)O)cc4F)n(-c4ccc(F)cc4)c32)ccc1Cl` (stereo partly drawn) [Example 83, (S)-2-(4-((7-(4-chloro-3-methoxyphenyl)-1-(4-fluorophenyl)-4,5,6,7-tetrahydro-7-methyl-1H-benzo[d]imidazol-2-ylthio)methyl)-3,5-difluorobenzamido)-5-guanidinopentanoic acid trifluoroacetic acid], for which the EC50 in test [1] amounted to 17.2 µM; in test [2], 0.13 µM.

As to `COc1cc(C2CCCc3nc(SCc4c(F)cccc4Cl)n(-c4cc(F)c(F)c(F)c4)c32)ccc1Cl` (stereo not drawn) [Example 10, 7-(4-chloro-3-methoxyphenyl)-2-((2-chloro-6-fluorobenzyl)thio)-1-(3,4,5-trifluorophenyl)-4,5,6,7-tetrahydro-1H-benzo[d]imidazole], the EC50 is > 50 µM in test [1] and 0.79 µM in test [2].

For the compound `COc1ccc(C2(C)CCCc3nc(SCc4c(F)cccc4[N+](=O)[O-])n(-c4ccc(F)cc4)c32)cc1OC` (stereo not drawn) [Example 115, 7-(3,4-dimethoxyphenyl)-2-((2-fluoro-6-nitrobenzyl)thio)-1-(4-fluorophenyl)-7-methyl-4,5,6,7-tetrahydro-1H-benzo[d]imidazole], the values for the 50% effective concentration (EC50) in test [1] and in test [2] were 2.6 µM and 0.22 µM, respectively.

In the case of `COc1cccc(C2CCCc3nc(SCc4c(F)cncc4F)n(-c4ccc(F)cc4)c32)c1` (stereo not drawn) [Example 71, 2-(((3,5-difluoropyridin-4-yl)methyl)thio)-1-(4-fluorophenyl)-7-(3-methoxyphenyl)-4,5,6,7-tetrahydro-1H-benzo[d]imidazole], the results for the EC50 in test [1] and in test [2] were > 50 µM and 1.91 µM, respectively.

Take `COc1cc(C2CCCc3nc(SCc4c(F)ccc(OCCN(C)C)c4F)n(-c4ccc(F)cc4)c32)ccc1Cl` (stereo not drawn) [Example 31, [2-[3-([[17-(4-chloro-3-methoxyphenyl)-1-(4-fluorophenyl)-4,5,6,7-tetrahydro-1H-1,3-benzodiazol-2-yl]sulfanyl]methyl)-2,4-difluorophenoxy]ethyl]dimethylamine]: the figures for the EC50 in test [1] and in test [2] were 4.44 µM and 4.1 µM, respectively.

`COc1ccc(C2(C)CCCc3nc(SCc4c(F)cc(CCN5CCOCC5)cc4F)n(-c4ccc(F)cc4)c32)cc1OC` (stereo not drawn) [Example 112, 4-(4-(((7-(3,4-dimethoxyphenyl)-1-(4-fluorophenyl)-7-methyl-4,5,6,7-tetrahydro-1H-benzo[d]imidazol-2-yl)thio)methyl)-3,5-difluorophenethyl)morpholine]: the values for the EC50 in test [1] and in test [2] were 0.3 µM and 0.13 µM, respectively.

As for `COc1cc(C2CCCc3nc(SCc4c(F)cccc4Cl)n(-c4ccc(F)c(F)c4F)c32)ccc1Cl` (stereo not drawn) [Example 9, 7-(4-chloro-3-methoxyphenyl)-2-((2-chloro-6-fluorobenzyl)thio)-1-(2,3,4-trifluorophenyl)-4,5,6,7-tetrahydro-1H-benzo[d]imidazole], the EC50 in test [1] is > 50 µM; in test [2] it was 9.86 µM.

In the case of `COCCOCCOCCOCCNC(=O)c1cc(F)c(CSc2nc3c(n2-c2ccc(F)cc2)C(c2cc(OC)c(OC)cc2Br)CCC3)c(F)c1` (stereo not drawn) [Example 68a, 4-(((7-(2-bromo-4,5-dimethoxyphenyl)-1-(4-fluorophenyl)-4,5,6,7-tetrahydro-1H-benzo[d]imidazol-2-yl)thio)methyl)-3,5-difluoro-N-(2,5,8,11-tetraoxatridecan-13-yl)benzamide], the EC50 was determined as 22 µM in test [1] and 7.39 µM in test [2].

For the compound `COc1cc(C2CCCc3nc(SCc4c(F)cc(CCC(=O)O)cc4F)n(-c4ccc(F)cc4)c32)ccc1Cl` (stereo not drawn) [Example 44, 3-(4-((7-(4-chloro-3-methoxyphenyl)-1-(4-fluorophenyl)-4,5,6,7-tetrahydro-1H-benzo[d]imidazol-2-ylthio)methyl)-3,5-difluorophenyl)propanoic acid trifluoroacetic acid], the EC50 is > 50 µM in test [1] and 1.39 µM in test [2].

In the case of `COc1ccc(C2(C)CCCc3nc(SCc4c(Cl)cccc4Cl)n(-c4ccc(F)cc4)c32)cc1OC` (stereo not drawn) [Example 114, 2-((2,6-dichlorobenzyl)thio)-7-(3,4-dimethoxyphenyl)-1-(4-fluorophenyl)-7-methyl-4,5,6,7-tetrahydro-1H-benzo[d]imidazole], the EC50 in test [1] came to 25.7 µM; in test [2], 1.64 µM.

As for `COc1cc(C2CCCc3nc(SCc4c(F)cc(C(=O)NCC[N+](C)(C)C)cc4F)n(-c4ccc(F)cc4)c32)ccc1Cl` (stereo not drawn) [Example 13, 2-(4-((7-(4-chloro-3-methoxyphenyl)-1-(4-fluorophenyl)-4,5,6,7-tetrahydro-1H-benzo[d]imidazol-2-ylthio)methyl)-3,5-difluorobenzamido)-N,N,N-trimethylethanaminium 2,2,2-trifluoroacetate], the EC50 was > 50 µM in test [1] and 8.04 µM in test [2].
